From patent US4347319A, “Microbiological epoxidation process” (priority 1980, dated 1982) come the findings set out here.

What all share (assay): Oxidation by washed cell suspensions of methane-grown cells
What all share (type): cell-based

Assay [1] has as its system Methylobacterium organophilum (CRL 26 R6) NRRL B-11,222. In a few lines:
(§1)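 Cells grown 2 days at 30 °C under methane/air 1:1 (pH 7.0 medium), washed and resuspended in 0.15 M phosphate pH 7.0. Suspension (2 mg cells) incubated at 30 °C, 300 rpm under substrate/O2 1:1 (liquid substrates 10 μl); products measured periodically by GC with flame ionization detection.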

Assay [2] concerns Methylosinus trichosporium (CRL 15 PM1) NRRL B-11,202. In a few lines:
as §1

Assay [3] concerns Methylococcus capsulatus (CRL M1) NRRL B-11,219. In a few lines: as §1
In assay [4] the test system is Methylobacter chroococcum (CRL M6) NRRL B-11,214. In a few lines: as §1
The test system of assay [5] is Methylobacter bovis (CRL M1Y) NRRL B-11,216. In a few lines: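 Washed resting cells from methane-grown cultures oxidise the test substrate, supplied as a 1:1 mix with O2 or as 10 μl liquid, at 30 °C in pH 7.0 phosphate buffer; product formation is followed by GC.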
The mark [6] stands for this setting: methane-grown washed cells, 30° C., methane to methanol, alkene to 1,2-epoxide.
[7] abbreviates: growth substrate Methane, n-alkane to secondary alcohol.
Setting [8] is: methane-grown cells, propane to acetone, butane to 2-butanone.
[9] abbreviates: methane-grown cell-suspension, pH 7.0, 3° C.
Setting [10] is: methane-grown cell-suspension, pH 7.0, 30° C.
The mark [11] stands for this setting: cells grown on methane at 40° C., 30° C. reaction temperature.

Read-outs that look alike come from different tables or passages of the source.

In the case of `CCC(C)O` (centres unmarked) [2-Butanol], the “Conversion Rate to Ketone, 2 hrs.” value came to 10 μmole/2 mg protein in assay [1]; 20 μmole/2 mg protein in assay [2]; 18 μmole/2 mg protein in assay [3]; 1 μmole/2 mg protein in assay [4]; 20 μmole/2 mg protein in assay [5]. Also, the “Conversion Rate to Ketone, 20 hrs.” value is listed as 50 μmole/2 mg protein in assay [3] and 3 μmole/2 mg protein in assay [4].
On to `C=CC=C` [Butadiene], for which the “Oxidative Conversion Rates” value is listed as 2.8 μmole/hr/mg protein in assay [1] (setting [6]); 4.2 μmole/hr/mg protein in assay [2] (setting [6]); 4.4 μmole/hr/mg protein in assay [3] (setting [6]); 1.5 μmole/hr/mg protein in assay [4] (setting [6]); 1.27 μmole/hr/mg protein in assay [5] (setting [6]).
Turning to `CCCC` [Butane], in assay [1], the “Conversion Rate” value turned out to be 0.80 μmoles/hr/^5 mg. protein and the “Conversion Rate to Ketone” value was determined as 2.0 μmoles/hr/mg Protein. Moreover, in assay [2], the “Conversion Rate” value is recorded as 1.2 μmoles/hr/^5 mg. protein and the “Conversion Rate to Ketone” value turned out to be 1.0 μmoles/hr/mg Protein. For the same molecule, in assay [3], the “Conversion Rate to Ketone” value stood at 2 μmoles/hr/mg Protein. In assay [3] (pH 7), the “Conversion Rate to 1-Butanol” value worked out at 0.4 μmoles/hr./mg./protein, the “Conversion Rate to 2-Butanol” value came to 0.5 μmoles/hr./mg./protein, the “Conversion Rate to 2-Butanone” value is given as 0.2 μmoles/hr./mg./protein and the “Conversion Rate to n-butanol” value is 0.2 μmoles/hr./mg./protein. The “Conversion Rate to Ketone” value in assay [4] came out at 1 μmoles/hr/mg Protein. Also, in assay [5], the “Conversion Rate to Ketone” value was 3 μmoles/hr/mg Protein.
In the case of `C` [Methane], the “Oxidative Conversion Rates” value in assay [1] turned out to be 0.7; in assay [2], 1.2; in assay [3], 2.5; in assay [4], 0.8; in assay [5], 1.5. Besides, in assay [3] (pH 7), the “Conversion Rate to Methanol” value was 2.5 μmoles/hr./mg./protein.
Take `CCC` [Propane]: the “Conversion Rate” value came to 1.4 μmoles/hr/^5 mg. protein in assay [1] (setting [7]) and 2.1 μmoles/hr/^5 mg. protein in assay [2] (setting [7]). Moreover, the “Conversion Rate to Ketone” value in assay [1] (setting [8]) amounted to 3.0 μmoles/hr/mg Protein; in assay [2] (setting [8]) it was 1.6 μmoles/hr/mg Protein; in assay [3] (setting [8]) it was 4.0 μmoles/hr/mg Protein; in assay [4] (setting [8]) it was 2.0 μmoles/hr/mg Protein; in assay [5] (setting [8]), 5.0 μmoles/hr/mg Protein. For the same molecule, the “Conversion Rate to 2-Propanol” value in assay [3] (setting [9]) is on record as 0.7 μmoles/hr./mg./protein. In addition, the “Conversion Rate to Acetone” value in assay [3] (setting [9]) is on record as 0.3 μmoles/hr./mg./protein. Further, in assay [3] (setting [10]), the “Conversion Rate to 1-Propanol” value is reported as 0.5 μmoles/hr./mg./protein. In addition, the “Conversion Rate to Propanol” value in assay [3] (setting [10]) stood at 0.2 μmoles/hr./mg./protein.
Take `C=CC` [Propylene]: the “Oxidative Conversion Rates” value in assay [1] (setting [6]) is recorded as 2.5 μmole/hr/mg protein; in assay [2] (setting [6]), 4.5 μmole/hr/mg protein; in assay [3] (setting [6]), 5.5 μmole/hr/mg protein; in assay [4] (setting [6]) it was 1.2 μmole/hr/mg protein; in assay [5] (setting [6]), 1.5 μmole/hr/mg protein. In addition, the “conversion rate propylene to propylene oxide” value worked out at 7.88 μ mole/2 hr./mg. protein in assay [3] (setting [11]) and 0.27 μ mole/2 hr./mg protein in assay [5] (setting [11]).
